# What was measured:
# [1] = target: T1, hTGase 2 (Homo sapiens, UniProt P21980); test: FA-based assay, characterization of irreversible inhibitors; details: DMC 30 µM, mean (SEM)
# T1 sequence (P21980 1-687): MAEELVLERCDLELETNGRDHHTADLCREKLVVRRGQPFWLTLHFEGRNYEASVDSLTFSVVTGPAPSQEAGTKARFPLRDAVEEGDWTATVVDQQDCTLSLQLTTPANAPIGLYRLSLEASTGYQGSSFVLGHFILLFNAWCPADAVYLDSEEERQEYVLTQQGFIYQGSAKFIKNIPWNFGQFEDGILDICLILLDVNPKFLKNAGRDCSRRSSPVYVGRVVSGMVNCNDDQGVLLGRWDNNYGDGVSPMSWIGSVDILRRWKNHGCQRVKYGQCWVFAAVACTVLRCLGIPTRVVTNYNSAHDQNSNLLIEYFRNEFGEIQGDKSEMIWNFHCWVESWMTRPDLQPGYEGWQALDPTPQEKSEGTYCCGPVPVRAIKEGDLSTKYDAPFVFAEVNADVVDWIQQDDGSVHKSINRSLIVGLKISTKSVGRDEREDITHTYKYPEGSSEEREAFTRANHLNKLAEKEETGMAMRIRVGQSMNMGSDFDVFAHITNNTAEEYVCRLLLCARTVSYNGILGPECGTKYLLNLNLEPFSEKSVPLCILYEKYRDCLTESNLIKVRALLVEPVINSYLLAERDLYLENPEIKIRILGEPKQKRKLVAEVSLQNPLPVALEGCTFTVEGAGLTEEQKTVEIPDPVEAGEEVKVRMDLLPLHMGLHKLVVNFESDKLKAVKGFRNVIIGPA
# [2] = target: T1, hTGase 2; test: Fluorimetric activity assay (substrate Z-Glu(HMC)-Gly-OH); assay type: biochemical; parameters: purchased Zedira T022; details: mean (SEM) of 2 experiments
# Experimental: The kinetic characterization of compounds 3 and 4 by means of their kinact/KI values was performed using a fluorimetric activity assay (substrate Z-Glu(HMC)-Gly-OH) as described recently.
# [3] = target: T1, hTGase 2; parameters: purchased Zedira T022; method as in PMID 29664627; details: hTGase 2 5 µg/mL, R-I-Cad 0.74 µM, mean (SEM), cited from earlier work
# [4] = target: T1, hTGase 2; parameters: purchased Zedira T022; method as in PMID 29664627; details: fluorimetric activity assay; mean (SEM); cited from earlier work
# [5] = target: T2, TGase 2 in cell lysates (Homo sapiens, UniProt P21980); test: FA-based assay of TGase 2 activity in cell lysates, control with inhibitor; assay type: biochemical, human and mouse; details: 10 µM inhibitor, preincubation 10 min; DMC 30 µM, R-I-Cad 0.81 µM; all studied cell lines
# T2 construct: endogenous in cells; host or cells: lysates of 30 cell lines (27 human, 3 mouse), e.g. HUVEC, A375
# T2 sequence (P21980 2-687 limits assumed): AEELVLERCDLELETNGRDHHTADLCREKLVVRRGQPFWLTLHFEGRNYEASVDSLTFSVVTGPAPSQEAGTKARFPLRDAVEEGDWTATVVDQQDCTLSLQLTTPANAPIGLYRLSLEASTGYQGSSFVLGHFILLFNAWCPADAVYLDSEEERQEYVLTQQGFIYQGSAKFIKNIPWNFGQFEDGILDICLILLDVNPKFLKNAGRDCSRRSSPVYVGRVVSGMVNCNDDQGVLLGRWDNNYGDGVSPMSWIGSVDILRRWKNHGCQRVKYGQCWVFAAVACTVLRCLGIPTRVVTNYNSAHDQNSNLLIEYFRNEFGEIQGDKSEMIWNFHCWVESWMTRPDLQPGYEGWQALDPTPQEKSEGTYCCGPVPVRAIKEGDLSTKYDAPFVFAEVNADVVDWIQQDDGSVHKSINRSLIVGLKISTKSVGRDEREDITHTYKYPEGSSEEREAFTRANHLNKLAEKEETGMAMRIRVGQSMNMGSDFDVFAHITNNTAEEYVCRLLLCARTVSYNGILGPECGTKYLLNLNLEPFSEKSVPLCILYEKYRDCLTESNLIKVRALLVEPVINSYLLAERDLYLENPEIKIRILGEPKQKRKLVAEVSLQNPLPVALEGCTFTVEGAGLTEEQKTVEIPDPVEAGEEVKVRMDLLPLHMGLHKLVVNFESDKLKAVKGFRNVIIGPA
# Experimental: Lysis of cell pellets was performed as described recently. Accordingly, cell pellets were resuspended in 50 µL modified RIPA buffer A, incubated on ice for 30 min and applied to ultrasound (Bandelin Sonopuls, 2 × 15 s, 20% power at ambient temperature). Subsequently, cell lysates were incubated on ice for 10 min and were then spun for 15 min at 4 °C at 15,000× g. The supernatants were transferred into fresh tubes. The protein content was determined with a BCA protein assay (ThermoFisher, Waltham, MA, USA) according to the manufacturer’s protocol. Lysates were stored at −60 °C.
# [6] = IC50 hTGase 2, preincubation 5 min, R-I-Cad 0.81 µM, hTGase 2 2 µg/mL
# [7] = IC50 hTGase 2, preincubation 30 min, R-I-Cad 0.74 µM, hTGase 2 5 µg/mL
"IC50 [1, 7]",FA increase over time in cell lysates in the presence of inhibitor [5],Compound,"IC50 [1, 6]",kinact/KI [2],Km [3],Ki ([3]; read-out: Ki (substrate inhibition)),"Vmax ([3]; pH 8.0, 30 °C)",kinact/KI hTGase 2 [4]
96 nM,–,"C#Cc1cccc(N2CCN(C(=O)[C@H](CCCCNC(=O)C=C)NC(=O)Cc3ccccc3)CC2)n1 [Compound 3, N^α-Phenylacetyl-N^ε-acryloyl-L-lysine-4-(6-ethinylpyridin-2-yl)piperazide]",441 nM,3450 M⁻¹ s⁻¹,–,–,–,–
–,–,"N,N-dimethylated casein [DMC]",–,–,2.78 µM,174000 nM,26.4 (2.8) mA mL s^−1 mg^−1,–
40 nM,below the detection limit,C=CC(=O)NCCCC[C@H](NC(=O)Cc1ccccc1)C(=O)N1CCN(c2cccc(C)n2)CC1 [Compound 1],–,–,–,–,–,4880 (20)^c M^−1s^−1
42 nM,–,C=CC(=O)NCCCC[C@H](NC(=O)Cc1ccccc1)C(=O)N1CCN(c2ccc([N+](=O)[O-])nc2)CC1 [Compound 2],–,–,–,–,–,8460 (710) ^c M^−1s^−1

Compound,"IC50 [1, 7]",FA increase over time in cell lysates in the presence of inhibitor [5],"IC50 [1, 6]",kinact/KI [2],Km [3],Ki ([3]; read-out: Ki (substrate inhibition)),"Vmax ([3]; pH 8.0, 30 °C)",kinact/KI hTGase 2 [4]
"C=CC(=O)NCCCC[C@H](NC(=O)Cc1ccccc1)C(=O)N1CCN(c2cccc(-c3cn(CCOCCOCCOCCNC(=O)CCCC[C@@H]4SC[C@@H]5NC(=O)N[C@@H]54)nn3)n2)CC1 [Compound 4, N-(2-(2-(2-(2-(4-(6-(4-(N^6-acryloyl-N^2-(2-phenylacetyl)-L-lysyl)piperazin-1-yl)pyridin-2-yl)-1H-1,2,3-triazol-1-yl)ethoxy)ethoxy)ethoxy)ethyl)-5-((3aS,4S,6aR)-2-oxohexahydro-1H-thieno[3,4-d]imidazol-4-yl)pentanamide]",68 nM,–,249 nM,7260 M⁻¹ s⁻¹,–,–,–,–

# Reference: PMC9104438, “Application of a Fluorescence Anisotropy-Based Assay to Quantify Transglutaminase 2 Activity in Cell Lysates” (International Journal of Molecular Sciences, 2022)
